{
  "source": "patent US10835614B2",
  "about": "“Poly(diol fumarates) and poly(diol fumarate-co-succinates)” (William Marsh Rice University, priority 2016, dated 2020)",
  "test_in_all_cases": "MIC, CLSI M38-A2 broth microdilution antifungal susceptibility testing",
  "key": {"A. fumigatus Af293": {"tested_on": "A. fumigatus Af293", "type": "cell-based", "conditions": "diols tested from 1024 μg/mL to 0.0625 μg/mL, triplicate; for MIC: Aspergillus fumigatus, AF293, read-out: minimum inhibitory concentration (MIC), A. fumigatus", "description": "(§1) A. fumigatus Af293, C. albicans Y4215 and Rhiozpus oryzae R0969, all clinical isolates of pathogenic species, were used to determine the antifungal activity of three different terminal diols: 1,6-hexanediol; 1,8-octanediol; and 1,10-decanediol (all purchased from Sigma-Aldrich, St. Louis, Mo.). Briefly, minimum inhibitory concentration (MIC) was determined following the Clinical Laboratory & Standards Institute (CLSI) M38-A2 broth microdilution antifungal susceptibility testing method. […] The experiment was performed in triplicate for each species and each diol."}, "C. albicans Y4215": {"tested_on": "C. albicans Y4215", "type": "cell-based", "conditions": "diols tested from 1024 μg/mL to 0.0625 μg/mL, triplicate; for MIC: Candida albicans, Y4215, read-out: minimum inhibitory concentration (MIC), C. albicans", "description": "as §1"}, "Rhiozpus oryzae R0969": {"tested_on": "Rhiozpus oryzae R0969", "type": "cell-based, R. oryzae", "conditions": "diols tested from 1024 μg/mL to 0.0625 μg/mL, triplicate; for MIC: Rhizopus arrhizus, R0969, read-out: minimum inhibitory concentration (MIC), R. oryzae", "description": "as §1"}},
  "data": [
    {"smiles": "OCCCCCCO", "note": "[1,6-Hexanediol, 1,6-hexanediol]", "values": [
      {"measurement": "MIC", "setting": "A. fumigatus Af293", "result": "≥ 1020", "unit": "µg/mL"},
      {"measurement": "minimum inhibitory concentration (MIC), A. fumigatus", "setting": "A. fumigatus Af293", "result": "did not demonstrate activity"},
      {"measurement": "MIC", "setting": "C. albicans Y4215", "result": "≥ 1020", "unit": "µg/mL"},
      {"measurement": "minimum inhibitory concentration (MIC), C. albicans", "setting": "C. albicans Y4215", "result": "did not demonstrate activity"},
      {"measurement": "MIC", "setting": "Rhiozpus oryzae R0969", "result": "≥ 1020", "unit": "µg/mL"},
      {"measurement": "minimum inhibitory concentration (MIC), R. oryzae", "setting": "Rhiozpus oryzae R0969", "result": "did not demonstrate activity"}
    ]},
    {"smiles": "OCCCCCCCCO", "note": "[1,8-Octanediol, 1,8-octanediol]", "values": [
      {"measurement": "MIC", "setting": "A. fumigatus Af293", "result": "≥ 1020", "unit": "µg/mL"},
      {"measurement": "minimum inhibitory concentration (MIC), A. fumigatus", "setting": "A. fumigatus Af293", "result": "did not demonstrate activity"},
      {"measurement": "MIC", "setting": "C. albicans Y4215", "result": "≥ 1020", "unit": "µg/mL"},
      {"measurement": "minimum inhibitory concentration (MIC), C. albicans", "setting": "C. albicans Y4215", "result": "did not demonstrate activity"},
      {"measurement": "MIC", "setting": "Rhiozpus oryzae R0969", "result": "≥ 1020", "unit": "µg/mL"},
      {"measurement": "minimum inhibitory concentration (MIC), R. oryzae", "setting": "Rhiozpus oryzae R0969", "result": "did not demonstrate activity"}
    ]},
    {"smiles": "OCCCCCCCCCCO", "note": "[1,10-Decanediol, 1,10-decanediol]", "values": [
      {"measurement": "MIC", "setting": "A. fumigatus Af293", "result": 256, "unit": "µg/mL"},
      {"measurement": "MIC", "setting": "C. albicans Y4215", "result": "≥ 1020", "unit": "µg/mL"},
      {"measurement": "MIC", "setting": "Rhiozpus oryzae R0969", "result": 1020, "unit": "µg/mL"}
    ]}
  ]
}
